Source: the supplement of paper PMC7661543
± gives the standard deviation of the averaged measurements.

Tests used:
Experiment in all cases: relative cell number vs DMSO control (72 h) (% of DMSO); higher = less growth inhibition (more cells)
Conditions in all cases: sgRNA knockout: sgNT
ZR-75-1 = test system: ZR-75-1
Description: (§1)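 QMAP-Seq: a pool of 5 breast cancer cell lines (ZR-75-1, SKBR3, HCC-38, MDA-MB-231, BT-20), each carrying 12 doxycycline-inducible Cas9 sgRNA perturbations (11 knockouts plus non-targeting sgNT), was treated with compounds for 72 h at four 10-fold doses (10 nM-10 uM or 1 nM-1 uM range). Barcodes were amplified and sequenced, and cell number was interpolated from 293T spike-in standard curves. The result is expressed as % of the median of DMSO wells. Two biological replicates.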

MDA-MB-231 = test system: MDA-MB-231
Description: as §1

HCC-38 = test system: HCC-38
Description: as §1

BT-20 = test system: BT-20
Description: as §1

SKBR3 = test system: SKBR3
Description: as §1

Row | Structure (SMILES) | relative cell number (ZR-75-1; 10 nM) | relative cell number (ZR-75-1; 100 nM) | relative cell number (ZR-75-1; 1000 nM) | relative cell number (ZR-75-1; 10000 nM) | relative cell number (MDA-MB-231; 10 nM) | relative cell number (MDA-MB-231; 100 nM) | relative cell number (MDA-MB-231; 1000 nM) | relative cell number (MDA-MB-231; 10000 nM) | relative cell number (HCC-38; 10 nM) | relative cell number (HCC-38; 100 nM) | relative cell number (HCC-38; 1000 nM) | relative cell number (HCC-38; 10000 nM) | relative cell number (BT-20; 10 nM) | relative cell number (BT-20; 100 nM) | relative cell number (BT-20; 1000 nM) | relative cell number (BT-20; 10000 nM) | relative cell number (SKBR3; 10 nM) | relative cell number (SKBR3; 100 nM) | relative cell number (SKBR3; 1000 nM) | relative cell number (SKBR3; 10000 nM) | relative cell number (ZR-75-1; 1 nM) | relative cell number (MDA-MB-231; 1 nM) | relative cell number (HCC-38; 1 nM) | relative cell number (BT-20; 1 nM) | relative cell number (SKBR3; 1 nM)
1 | Cc1ccc2c(c1)C(=O)C1(O)CCN(c3ccccc3)C1=N2 (stereo not given) [Blebbistatin] | 108 ± 9.9 | 112 ± 9.8 | 98.1 ± 39 | 84.1 ± 7.3 | 110 ± 16 | 138.4 ± 0.51 | 144 ± 49 | 97 ± 12 | 125 ± 10 | 118 ± 4.2 | 115 ± 13 | 69.5 ± 7.5 | 115.9 ± 0.31 | 128 ± 6.2 | 130 ± 4 | 125 ± 46 | 114 ± 20 | 111 ± 16 | 126 ± 11 | 96.52 ± 0.14 | – | – | – | – | –
2 | CC(C)C[C@H](NC(=O)[C@H](Cc1ccccc1)NC(=O)c1cnccn1)B(O)O [Bortezomib] | 80 ± 17 | 17.2 ± 3.5 | 13.4 ± 2.8 | – | 65.2 ± 19 | 6.68 ± 5 | 13.2 ± 6.6 | – | 36.8 ± 2.4 | 4.58 ± 0.053 | 7.2 ± 1.2 | – | 74.6 ± 13 | 24.7 ± 9.2 | 16.7 ± 2.3 | – | 34.3 ± 8 | 14.2 ± 4.1 | 9.59 ± 4 | – | 72 ± 20 | 86.7 ± 9.3 | 91.8 ± 5.8 | 71.71 ± 0.27 | 94.4 ± 13
3 | C[C@H]1CCC/C=C/[C@@H]2C[C@H](O)C[C@H]2[C@H](O)/C=C/C(=O)O1 [BrefeldinA] | 86.8 ± 14 | 18.7 ± 2.6 | 8.03 ± 3.4 | 5.82 ± 3.4 | 108 ± 22 | 14.1 ± 7.9 | 7.55 ± 2.6 | 9.31 ± 2.6 | 92.1 ± 16 | 54.8 ± 7.7 | 35.3 ± 11 | 23.6 ± 7.5 | 84.9 ± 25 | 25.6 ± 6.2 | 31.1 ± 3.5 | 31.5 ± 9.4 | 89.9 ± 43 | 17.7 ± 11 | 5.96 ± 2.5 | 6.07 ± 0.93 | – | – | – | – | –
4 | Cc1cc2c(F)c(Oc3ncnn4cc(OC[C@@H](C)O)c(C)c34)ccc2[nH]1 [Brivanib] | 86.5 ± 18 | 66.1 ± 24 | 111 ± 19 | 53.5 ± 20 | 107 ± 31 | 106 ± 25 | 122 ± 9.6 | 58.7 ± 9.5 | 96.9 ± 6.4 | 84.3 ± 9.9 | 96.7 ± 2.2 | 84.119 ± 0.073 | 119 ± 35 | 78.5 ± 1.6 | 109 ± 18 | 93.9 ± 4 | 112 ± 6.1 | 61.5 ± 12 | 82.4 ± 11 | 60.9 ± 28 | – | – | – | – | –
5 | CC[C@H](Nc1ncnc2[nH]cnc12)c1nc2cccc(F)c2c(=O)n1-c1ccccc1 [CAL101] | 76.6 ± 14 | 95.6 ± 7.7 | 84.5 ± 3.2 | 72 ± 15 | 122 ± 4.8 | 68.4 ± 19 | 118 ± 38 | 110 ± 9.4 | 87.5 ± 13 | 96.1 ± 14 | 86.7 ± 14 | 83.8 ± 32 | 96.9 ± 17 | 97.88 ± 0.52 | 88.6 ± 25 | 88.8 ± 26 | 77.4 ± 19 | 91.3 ± 18 | 87.3 ± 49 | 84.2 ± 3.7 | – | – | – | – | –
6 | COc1cc2nccc(Oc3ccc(NC(=O)C4(C(=O)Nc5ccc(F)cc5)CC4)cc3)c2cc1OC [Cabozantinib] | 132 ± 14 | 102 ± 2.8 | 111 ± 40 | 28.3 ± 19 | 103 ± 8.6 | 88.2 ± 3.7 | 100 ± 3.8 | 36.7 ± 24 | 87.7 ± 22 | 104 ± 2.3 | 97.8 ± 2.8 | 61.9 ± 9.7 | 110 ± 3.4 | 98.3 ± 13 | 94.5 ± 5 | 49.8 ± 18 | 128 ± 10 | 130 ± 11 | 82.9 ± 26 | 25.8 ± 17 | – | – | – | – | –
